Assay results published in ChEMBL document CHEMBL5500324, “The potential of marine-derived piperazine alkaloids: Sources, structures and bioactivities” (Eur J Med Chem, 2024).
Converted amounts (≈) assume the structure as drawn.

How the values were obtained:
HL-60 [1] = assay: Cytotoxicity against human HL-60 cells assessed as reduction in cell viability; assay type: functional, cell-based
P388 [2] = assay: Cytotoxicity against mouse P388 cells assessed as reduction in cell viability by SRB assay; assay type: functional, cell-based
HGC-27 = assay: Cytotoxicity against human HGC-27 cells assessed as reduction in cell viability; assay type: functional, cell-based
MKN-1 [3] = assay: Antiproliferative activity against human MKN-1 cells assessed as reduction in cell viability measured for 48 hrs by CCK-8 assay; assay type: functional, cell-based; details: MKN-1, 48 h
HeLa [4] = assay: Cytotoxicity against human HeLa cells assessed as reduction in cell viability by MTT assay; assay type: functional, cell-based
HeLa [5] = assay: Cytotoxicity against human HeLa cells assessed as reduction in cell growth measured after 72 hrs by MTT assay; assay type: functional, cell-based
A-375 = assay: Cytotoxicity against human A-375 cells assessed as reduction in cell viability by CCK-8 assay; assay type: functional, cell-based
K562 = assay: Cytotoxicity against human K562 cells assessed as reduction in cell viability by MTT assay; assay type: functional, cell-based
A549 [6] = assay: Antiproliferative activity against human A549 cells assessed as reduction in cell viability incubated for 72 hrs by SRB assay; assay type: functional, cell-based; details: A549, 72 h
HT-29 [7] = assay: Antiproliferative activity against human HT-29 cells assessed as reduction in cell viability incubated for 72 hrs by SRB assay; assay type: functional, cell-based; details: HT-29, 72 h
MDA-MB-231 [8] = assay: Antiproliferative activity against human MDA-MB-231 cells assessed as reduction in cell viability incubated for 72 hrs by SRB assay; assay type: functional, cell-based; details: MDA-MB-231, 72 h
A549 [9] = assay: Cytotoxicity against human A549 cells assessed as inhibition of cell growth incubated for 48 hrs by MTT assay; assay type: functional, cell-based; details: A549, 48 h
A549 [10] = assay: Cytotoxicity against human A549 cells assessed as inhibition of cell growth; assay type: functional, cell-based
SK-MEL-28 = assay: Cytotoxicity against human SK-MEL-28 cells assessed as inhibition of cell growth; assay type: functional, cell-based
A549 [11] = assay: Cytotoxicity against human A549 cells assessed as reduction in cell viability measured after 48 hrs by MTT assay; assay type: functional, cell-based; details: A549, 48 h
P388 [12] = assay: Cytotoxicity against mouse P388 cells assessed as inhibition of cell growth; assay type: functional, cell-based
HT-29 [13] = assay: Cytotoxicity against human HT-29 cells assessed as inhibition of cell growth; assay type: functional, cell-based
HepG2 [14] = assay: Cytotoxicity against human HepG2 cells assessed as reduction in cell growth incubated for 48 hrs by CCK-8 assay; assay type: functional, cell-based; details: HepG2, 48 h
MDA-MB-231 [15] = assay: Cytotoxicity against human MDA-MB-231 cells assessed as reduction in cell growth incubated for 48 hrs by CCK-8 assay; assay type: functional, cell-based; details: MDA-MB-231, 48 h
HL-60 [16] = assay: Cytotoxicity against human HL-60 cells assessed as reduction in cell growth incubated for 72 hrs by SRB assay; assay type: functional, cell-based; details: HL-60, 72 h
Bel-7402 = assay: Cytotoxicity against human Bel-7402 cells assessed as reduction in cell growth incubated for 72 hrs by SRB assay; assay type: functional, cell-based; details: Bel-7402, 72 h
A549 [17] = assay: Cytotoxicity against human A549 cells assessed as reduction in cell growth incubated for 72 hrs by SRB assay; assay type: functional, cell-based; details: A549, 72 h
[18] = Cytotoxicity against human A2780cis cells assessed as inhibition of cell growth incubated for 72 hrs by SRB assay; assay type: functional, cell-based
HeLa [19] = assay: Cytotoxicity against human HeLa cells assessed as reduction in cell growth measured after 24 hrs by MTT assay; assay type: functional, cell-based
HL-60 [20] = assay: Cytotoxicity against human HL-60 cells assessed as reduction in cell growth measured for 72 hrs by MTT assay; assay type: functional, cell-based; details: HL-60, 72 h
L1210 = assay: Cytotoxicity against mouse L1210 cells assessed as reduction in cell growth measured after 72 hrs by MTT assay; assay type: functional, cell-based; details: L1210, 72 h
P388 [21] = assay: Cytotoxicity against mouse P388 cells assessed as inhibition of cell growth incubated for 72 hrs by MTT assay; assay type: functional, cell-based; details: P388, 72 h
MKN-1 [22] = assay: Cytotoxicity against human MKN-1 cells assessed as reduction in cell viability; assay type: functional, cell-based
MKN-1 [23] = assay: Antiproliferative activity against human MKN-1 cells assessed as inhibition of cell proliferation by CCK8 assay; assay type: functional, cell-based
[24] = Cytotoxicity against Sf9 cells assessed as inhibition of cell growth measured after 24 hrs by MTT assay; assay type: toxicity, cell-based; details: Spodoptera frugiperda
HL-60 [25] = assay: Cytotoxicity against human HL-60 cells assessed as reduction in cell viability measured for 24 hrs by MTT assay; assay type: functional, cell-based; details: HL-60, 24 h
HCT-116 = assay: Cytotoxicity against human HCT-116 cells assessed as inhibition of cell growth incubated for 72 hrs by SRB assay; assay type: functional, cell-based; details: HCT-116, 72 h
HepG2 [26] = assay: Cytotoxicity against human HepG2 cells assessed as reduction in cell growth by MTT assay; assay type: functional, cell-based
MCF7 = assay: Cytotoxicity against human MCF7 cells assessed as reduction in cell growth incubated for 48 hrs by MTT assay; assay type: functional, cell-based; details: MCF7, 48 h
P388 [27] = assay: Cytotoxicity against mouse P388 cells assessed as reduction in cell growth; assay type: functional; details: read-out: ED50 (the source's name)
NCI-H460 = assay: Cytotoxicity against human NCI-H460 cells assessed as reduction in cell growth by MTT assay; assay type: functional, cell-based

SMILES: COc1ccc2c(c1)N[C@@]1(C2=O)[C@H](C=C(C)C)N2C(=O)[C@]3(O)CCCN3C(=O)[C@]2(O)[C@H]1O
- IC50 (HL-60 [1]): 6 µM

SMILES: C=CC(C)(C)c1[nH]c2ccccc2c1/C=C1\NC(=O)[C@]2(C[C@H](C)C=C[C@@H]2CCc2c(O)cc(CC=C(C)C)c(O)c2C=O)NC1=O
- IC50 (P388 [2]): 1.83 µM

SMILES: C=CC(C)(C)c1[nH]c2ccccc2c1/C=C1\NC(=O)[C@@H]2CCCN2C1=O
- IC50 (HGC-27): 4.54 µM

SMILES: C=CC(C)(C)c1[nH]c2cc(CC=C(C)C)ccc2c1/C=C1\NC(=O)[C@H](C)NC1=O
- IC50 (MKN-1 [3]): 4.6 µM

SMILES: CS[C@@H]1C(=O)N[C@](Cc2ccc(OCC=C(C)C)cc2)(SC)C(=O)N1C
- IC50 (HeLa [4]): 4.2 µM

SMILES: CC(C)[C@H]1C(=O)N2[C@@H]3N4c5ccccc5[C@]3(C[C@@H]3[C@@]5(C)CCCC(C)(C)[C@@H]5CC[C@]34C)C[C@H]2C(=O)N1C
- IC50 (HeLa [5]): 16.7 µM

SMILES: CC(C)C[C@@H]1NC(=O)[C@@H]2C[C@@]3([C@@]45C[C@H]6C(=O)N[C@@H](Cc7ccccc7)C(=O)N6[C@@H]4Nc4ccccc45)c4ccccc4N[C@H]3N2C1=O
- IC50 (A-375): 10.3 µM

SMILES: CS[C@@H]1C(=O)N(C)/C(=C/c2ccc(OCC=C(C)C)cc2)C(=O)N1C
- IC50 (K562): 12.7 µM

SMILES: CN1C[C@@H](c2c[nH]c3cc(Br)ccc23)N(C)C[C@@H]1c1c[nH]c2ccccc12
- IC50 (A549 [6]): 4.7 µM
- IC50 (HT-29 [7]): 4.8 µM
- IC50 (MDA-MB-231 [8]): 7.5 µM
- IC50 (A549 [9]): 4.1 µM

SMILES: COc1c(C)cc2c(c1O)[C@H]1[C@@H]3[C@@H]4SCC(=O)C(=O)OC[C@@H](c5c6c(c(C)c(OC(C)=O)c54)OCO6)N3[C@@H](O)[C@@H](C2)N1C
- IC50 (A549 [10]): 0.02 mg/L (≈ 0.0326 µM)
- IC50 (SK-MEL-28): 0.025 mg/L (≈ 0.0408 µM)
- IC50 (A549 [11]): 0.01 mg/L (≈ 0.0163 µM)
- IC50 (P388 [12]): 10 µM
- IC50 (HT-29 [13]): 0.025 mg/L (≈ 0.0408 µM)

SMILES: COc1ccc2c(c1)NC(=O)[C@]21[C@H](C=C(C)C)N2C(=O)[C@@H]3CCCN3C(=O)[C@]2(O)[C@H]1O
- IC50 (HepG2 [14]): 14.1 µM
- IC50 (MDA-MB-231 [15]): 35.5 µM

SMILES: C=CC(C)(C)[C@@]12C[C@@]3(OC)C(=O)N/C(=C/c4cn(C(C)(C)CC(C)=O)cn4)C(=O)N3[C@]1(C)Nc1ccccc12
- IC50 (HL-60 [16]): 36.6 µM
- IC50 (Bel-7402): > 50 µM
- IC50 (A549 [17]): 42.5 µM

SMILES: O=C1N2[C@H]3C(=CC=C[C@@H]3O)C[C@]23SS[C@]12C[C@H]1[C@@H]([C@@H](O)C=C[C@@H]1O)N2C3=O
- IC50 [18]: 0.661 µM

SMILES: O=C1N[C@@H](C[C@@]2(O)c3ccccc3N3C(=O)C[C@@H](c4ccccc4)N[C@H]32)C(=O)N[C@H]1Cc1ccccc1
- IC50 (HeLa [19]): 8.4 mg/L (≈ 16.9 µM)

SMILES: CSC12NC(=O)C(Cc3ccc(OCC=C(C)C)cc3)(NC1=O)[C@H]1C(=O)O[C@H](C)C/C=C/C(=O)O[C@H](C)C[C@@H](O)C(=O)[C@H]12 (stereo partly specified)
- IC50 (HL-60 [20]): 2.2 µM
- IC50 (L1210): 11.7 µM
- IC50 (P388 [21]): 6.8 µM

SMILES: C=CC(C)(C)c1[nH]c2ccccc2c1/C=c1\[nH]c(=O)c(=C)[nH]c1=O [NEOECHINULIN B]
- IC50 (MKN-1 [22]): 4.6 µM
- IC50 (MKN-1 [23]): 20.7 µM

SMILES: CS[C@@]1(Cc2ccccc2)NC(=O)[C@](O)(Cc2ccccc2)NC1=O
- IC50 at 24 h [24]: 0.7 µM

SMILES: CC1(C)C=Cc2c(ccc3c2NC(=O)C(C)(C)/C=C\N2C(=O)C4=CCCN4C(=O)[C@@H]2CC3=O)O1
- IC50 (HL-60 [25]): 8.7 µM

SMILES: O=C1N[C@@](O)(Cc2ccccc2)C(=O)N2CCC[C@@H]12
- IC50 (HCT-116): 23 µM

SMILES: CN1C(=O)[C@@]23SS[C@]1(C)C(=O)N2[C@H]1Nc2ccccc2[C@@]1(c1c[nH]c2ccccc12)[C@@H]3O
- IC50 (HepG2 [26]): 0.53 µM
- IC50 (MCF7): 0.23 µM
- EC50 (P388 [27]): 2.4 mg/L (≈ 5.17 µM)
- IC50 (NCI-H460): 0.23 µM
